Legend:
Experiment in all cases: Broad selectivity panel, 32P incorporation
Type in all cases: biochemical
CaMKIV = molecular target: T1, CaMKIV (Homo sapiens, UniProt Q16566); conditions: 40 μM ATP, read-out: Percent inhibition CaMKIV; for inhibition at 0.1 µM: 0.1 μM compound; for inhibition at 1 µM: 1 μM compound
T1 construct: purchased Upstate (Charlottesville, Va.)
T1 sequence (Q16566 1-473): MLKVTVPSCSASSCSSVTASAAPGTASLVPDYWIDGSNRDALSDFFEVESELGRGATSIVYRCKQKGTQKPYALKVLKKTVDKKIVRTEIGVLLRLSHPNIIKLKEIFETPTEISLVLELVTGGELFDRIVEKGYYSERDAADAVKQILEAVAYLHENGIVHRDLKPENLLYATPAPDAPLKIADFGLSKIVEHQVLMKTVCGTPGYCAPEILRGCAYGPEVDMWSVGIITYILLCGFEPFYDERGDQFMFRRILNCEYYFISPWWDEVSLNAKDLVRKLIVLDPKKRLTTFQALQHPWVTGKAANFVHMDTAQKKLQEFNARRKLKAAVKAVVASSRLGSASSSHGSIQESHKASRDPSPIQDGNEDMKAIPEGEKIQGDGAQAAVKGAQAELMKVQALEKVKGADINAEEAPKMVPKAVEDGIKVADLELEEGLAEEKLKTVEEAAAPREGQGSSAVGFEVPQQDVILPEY
Description: (§1) Various compounds of the present invention are screened against a panel of 24 additional kinases (Upstate, Charlottesville, Va.). Compounds are tested 0.1 μM and 1 μM in reactions containing 40 μM ATP. Incorporation of radiolabeled phosphate (^32P) into each kinase substrate is measured in the presence and absence of test compound. Results are reported as the percent decrease in the amount of ^32P incorporated into the substrate in the presence of compound, compared to buffer control.

JNK1α1 = molecular target: T2, JNK1α1 (Homo sapiens, UniProt P45983); conditions: 40 μM ATP, read-out: Percent inhibition JNK1α1; for inhibition at 0.1 µM: 0.1 μM compound; for inhibition at 1 µM: 1 μM compound
T2 construct: purchased Upstate (Charlottesville, Va.)
Description: as §1

Lyn = molecular target: T3, Lyn (Homo sapiens, UniProt P07948); conditions: 40 μM ATP, read-out: Percent inhibition Lyn; for inhibition at 0.1 µM: 0.1 μM compound; for inhibition at 1 µM: 1 μM compound
T3 construct: purchased Upstate (Charlottesville, Va.)
Description: as §1

MEK1 = molecular target: T4, MEK1 (Homo sapiens, UniProt Q02750); conditions: 40 μM ATP, read-out: Percent inhibition MEK1; for inhibition at 0.1 µM: 0.1 μM compound; for inhibition at 1 µM: 1 μM compound
T4 construct: purchased Upstate (Charlottesville, Va.)
Description: as §1

MKK6 = molecular target: T5, MKK6 (Homo sapiens, UniProt P52564); conditions: 40 μM ATP, read-out: Percent inhibition MKK6; for inhibition at 0.1 µM: 0.1 μM compound; for inhibition at 1 µM: 1 μM compound
T5 construct: purchased Upstate (Charlottesville, Va.)
T5 sequence (P52564 1-334): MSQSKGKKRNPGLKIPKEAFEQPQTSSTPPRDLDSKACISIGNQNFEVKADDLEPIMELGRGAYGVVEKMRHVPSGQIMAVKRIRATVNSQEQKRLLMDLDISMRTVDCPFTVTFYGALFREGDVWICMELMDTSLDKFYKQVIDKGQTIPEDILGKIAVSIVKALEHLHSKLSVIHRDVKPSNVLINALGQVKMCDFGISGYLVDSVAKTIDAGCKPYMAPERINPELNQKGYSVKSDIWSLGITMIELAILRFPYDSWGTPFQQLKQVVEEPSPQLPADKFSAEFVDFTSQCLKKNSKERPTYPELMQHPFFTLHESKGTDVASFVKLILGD
Description: as §1

PKA = molecular target: T6, PKA (Homo sapiens, UniProt P17612); conditions: 40 μM ATP, read-out: Percent inhibition PKA; for inhibition at 0.1 µM: 0.1 μM compound; for inhibition at 1 µM: 1 μM compound
T6 construct: purchased Upstate (Charlottesville, Va.)
Description: as §1

PKB α = molecular target: T7, PKB α (Homo sapiens, UniProt P31749); conditions: 40 μM ATP, read-out: Percent inhibition PKB α; for inhibition at 0.1 µM: 0.1 μM compound; for inhibition at 1 µM: 1 μM compound
T7 construct: purchased Upstate (Charlottesville, Va.)
Description: as §1

PKBβ = molecular target: T8, PKBβ (Homo sapiens, UniProt P31751); conditions: 40 μM ATP, read-out: Percent inhibition PKBβ; for inhibition at 0.1 µM: 0.1 μM compound; for inhibition at 1 µM: 1 μM compound
T8 construct: purchased Upstate (Charlottesville, Va.)
Description: as §1

ZAP-70 = molecular target: T9, ZAP-70 (Homo sapiens, UniProt P43403); conditions: 40 μM ATP, read-out: Percent inhibition ZAP-70; for inhibition at 0.1 µM: 0.1 μM compound; for inhibition at 1 µM: 1 μM compound
T9 construct: purchased Upstate (Charlottesville, Va.)
T9 sequence (P43403 1-619): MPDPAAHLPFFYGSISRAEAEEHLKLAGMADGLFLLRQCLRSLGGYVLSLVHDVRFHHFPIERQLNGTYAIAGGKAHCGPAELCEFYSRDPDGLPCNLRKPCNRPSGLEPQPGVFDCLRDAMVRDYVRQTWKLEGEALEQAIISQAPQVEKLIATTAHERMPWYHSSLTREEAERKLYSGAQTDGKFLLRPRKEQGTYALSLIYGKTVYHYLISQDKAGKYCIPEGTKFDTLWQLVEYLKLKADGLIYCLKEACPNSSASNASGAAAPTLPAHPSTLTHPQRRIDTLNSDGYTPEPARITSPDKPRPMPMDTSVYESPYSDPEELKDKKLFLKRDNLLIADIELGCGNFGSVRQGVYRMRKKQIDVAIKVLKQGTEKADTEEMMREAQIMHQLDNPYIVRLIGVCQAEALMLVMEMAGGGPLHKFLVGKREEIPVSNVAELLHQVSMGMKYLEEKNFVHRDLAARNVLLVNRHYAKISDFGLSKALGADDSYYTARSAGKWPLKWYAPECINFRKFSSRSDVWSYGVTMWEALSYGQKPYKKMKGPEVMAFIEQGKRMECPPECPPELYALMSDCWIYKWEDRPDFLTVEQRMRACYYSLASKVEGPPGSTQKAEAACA
Description: as §1

p70S6K = conditions: 40 μM ATP
Description: as §1

T3 sequence (P07948 whole entry, species assumed): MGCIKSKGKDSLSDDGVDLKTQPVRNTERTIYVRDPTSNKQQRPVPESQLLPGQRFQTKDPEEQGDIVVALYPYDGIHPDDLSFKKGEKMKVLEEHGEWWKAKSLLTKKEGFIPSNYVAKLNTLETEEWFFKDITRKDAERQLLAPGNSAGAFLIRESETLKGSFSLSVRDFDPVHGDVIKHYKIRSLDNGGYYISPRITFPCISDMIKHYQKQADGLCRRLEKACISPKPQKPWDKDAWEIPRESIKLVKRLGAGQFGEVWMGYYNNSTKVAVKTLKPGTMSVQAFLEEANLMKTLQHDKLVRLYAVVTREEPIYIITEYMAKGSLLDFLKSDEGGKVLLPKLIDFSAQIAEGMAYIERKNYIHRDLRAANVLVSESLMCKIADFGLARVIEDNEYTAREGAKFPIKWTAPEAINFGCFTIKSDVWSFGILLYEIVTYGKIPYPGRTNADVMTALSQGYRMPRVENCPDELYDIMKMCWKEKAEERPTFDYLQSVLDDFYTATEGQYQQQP
T8 sequence (P31751 whole entry, species assumed): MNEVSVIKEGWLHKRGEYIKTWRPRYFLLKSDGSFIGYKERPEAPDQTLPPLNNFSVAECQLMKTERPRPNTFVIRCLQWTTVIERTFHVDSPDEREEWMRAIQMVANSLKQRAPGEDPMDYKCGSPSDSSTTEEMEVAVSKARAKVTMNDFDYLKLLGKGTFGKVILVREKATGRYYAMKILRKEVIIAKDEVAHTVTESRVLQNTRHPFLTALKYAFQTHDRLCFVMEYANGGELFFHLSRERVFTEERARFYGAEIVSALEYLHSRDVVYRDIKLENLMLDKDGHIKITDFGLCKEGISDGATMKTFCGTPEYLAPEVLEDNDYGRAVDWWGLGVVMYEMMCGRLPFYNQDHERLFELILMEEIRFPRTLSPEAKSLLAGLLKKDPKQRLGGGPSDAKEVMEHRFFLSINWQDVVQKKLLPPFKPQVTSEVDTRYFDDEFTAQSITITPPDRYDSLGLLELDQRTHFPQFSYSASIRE
T2 sequence (P45983 1-384 isoform P45983-2, species assumed): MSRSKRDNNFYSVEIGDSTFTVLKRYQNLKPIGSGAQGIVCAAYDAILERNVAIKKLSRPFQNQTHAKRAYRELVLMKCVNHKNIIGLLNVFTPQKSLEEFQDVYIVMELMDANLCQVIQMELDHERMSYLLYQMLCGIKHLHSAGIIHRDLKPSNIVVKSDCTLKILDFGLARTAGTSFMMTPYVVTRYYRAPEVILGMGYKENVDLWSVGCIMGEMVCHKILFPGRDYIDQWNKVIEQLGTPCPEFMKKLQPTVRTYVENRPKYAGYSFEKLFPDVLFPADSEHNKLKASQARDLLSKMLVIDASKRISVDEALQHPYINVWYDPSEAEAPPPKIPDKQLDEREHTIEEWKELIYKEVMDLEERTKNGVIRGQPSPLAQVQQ
T4 sequence (Q02750 whole entry, species assumed): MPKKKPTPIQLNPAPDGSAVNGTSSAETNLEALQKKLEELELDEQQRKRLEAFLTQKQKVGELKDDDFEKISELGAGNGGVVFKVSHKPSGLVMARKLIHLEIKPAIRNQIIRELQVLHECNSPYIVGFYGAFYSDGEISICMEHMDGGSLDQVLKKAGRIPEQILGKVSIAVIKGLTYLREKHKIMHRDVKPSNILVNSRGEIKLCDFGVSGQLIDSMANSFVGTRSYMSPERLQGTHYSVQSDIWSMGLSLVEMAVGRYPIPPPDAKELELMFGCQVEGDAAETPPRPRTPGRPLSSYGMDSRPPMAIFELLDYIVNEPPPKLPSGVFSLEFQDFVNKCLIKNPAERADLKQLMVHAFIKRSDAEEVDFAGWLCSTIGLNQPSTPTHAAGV
T7 sequence (P31749 whole entry, species assumed): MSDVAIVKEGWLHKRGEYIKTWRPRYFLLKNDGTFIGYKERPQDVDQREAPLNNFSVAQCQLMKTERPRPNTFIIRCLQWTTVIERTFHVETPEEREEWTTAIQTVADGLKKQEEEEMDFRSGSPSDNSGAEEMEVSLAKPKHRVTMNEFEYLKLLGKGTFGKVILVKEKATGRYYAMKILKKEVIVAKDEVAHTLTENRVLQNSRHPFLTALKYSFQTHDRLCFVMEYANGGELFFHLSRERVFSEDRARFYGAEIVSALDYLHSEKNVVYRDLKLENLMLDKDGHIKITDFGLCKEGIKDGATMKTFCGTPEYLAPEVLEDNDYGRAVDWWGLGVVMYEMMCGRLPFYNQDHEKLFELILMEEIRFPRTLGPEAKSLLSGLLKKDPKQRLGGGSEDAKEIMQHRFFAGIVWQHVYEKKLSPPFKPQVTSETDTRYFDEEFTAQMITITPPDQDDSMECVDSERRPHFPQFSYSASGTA

Row | inhibition at 0.1 µM (CaMKIV) | inhibition at 1 µM (CaMKIV) | inhibition at 0.1 µM (JNK1α1) | inhibition at 1 µM (JNK1α1) | inhibition at 0.1 µM (Lyn) | inhibition at 1 µM (Lyn) | inhibition at 0.1 µM (MEK1) | inhibition at 1 µM (MEK1) | inhibition at 0.1 µM (MKK6) | inhibition at 1 µM (MKK6) | inhibition at 0.1 µM (PKA) | inhibition at 1 µM (PKA) | inhibition at 0.1 µM (PKB α) | inhibition at 1 µM (PKB α) | inhibition at 0.1 µM (PKBβ) | inhibition at 1 µM (PKBβ) | inhibition at 0.1 µM (ZAP-70) | inhibition at 1 µM (ZAP-70) | Structure (SMILES) | Percent inhibition p70S6K (p70S6K; 0.1 μM compound) | Percent inhibition p70S6K (p70S6K; 1 μM compound)
1 | 18% | -2% | 37% | 86% | -7% | -13% | 7% | 11% | 8% | 90% | 6% | -2% | 5% | 6% | 0% | -30% | 13% | -1% | CS(=O)(=O)N1CCC(Nc2nccc(-c3c(-c4ccc(F)cc4)nc4occn34)n2)CC1 [CCLXXIX] | 9 | 10
2 | 8% | 21% | -13% | 61% | -26% | -29% | 6% | 13% | 26% | 83% | -6% | 10% | -6% | 4% | -3% | 41% | -53% | 18% | CC(=O)N1CCC(Nc2nccc(-c3c(-c4ccc(F)cc4)nc4occn34)n2)CC1 [CCLXXVIII] | −11 | 4
3 | -10% | 7% | -26% | 18% | -24% | 27% | 9% | 13% | 0% | 62% | 0% | 11% | -1% | 13% | -18% | 13% | -2% | 9% | Fc1ccc(-c2nc3occn3c2-c2ccnc(NC3CCNCC3)n2)cc1 [CCLXXX] | 7 | 18
4 | 13% | 7% | -1% | -18% | 2% | -12% | -1% | 2% | 1% | 75% | 1% | -8% | 11% | 5% | -4% | -19% | 13% | -9% | CN(C)CC(C)(C)CNc1nccc(-c2c(-c3ccc(F)cc3)nc3occn23)n1 [CXIX] | 0 | −5

Row | Structure (SMILES) | inhibition at 0.1 µM (CaMKIV) | inhibition at 1 µM (CaMKIV) | inhibition at 0.1 µM (JNK1α1) | inhibition at 1 µM (JNK1α1) | inhibition at 0.1 µM (Lyn) | inhibition at 1 µM (Lyn) | inhibition at 0.1 µM (MEK1) | inhibition at 1 µM (MEK1) | inhibition at 0.1 µM (MKK6) | inhibition at 1 µM (MKK6) | inhibition at 0.1 µM (PKA) | inhibition at 1 µM (PKA) | inhibition at 0.1 µM (PKB α) | inhibition at 1 µM (PKB α) | inhibition at 0.1 µM (PKBβ) | inhibition at 1 µM (PKBβ) | inhibition at 0.1 µM (ZAP-70) | inhibition at 1 µM (ZAP-70) | Percent inhibition p70S6K (p70S6K; 0.1 μM compound) | Percent inhibition p70S6K (p70S6K; 1 μM compound)
5 | CN1[C@@H]2CC[C@H]1C[C@@H](Nc1nccc(-c3c(-c4ccc(F)cc4)nc4occn34)n1)C2 [CCLXXXI] | 12% | 33% | -13% | 6% | -6% | 4% | -3% | 7% | 19% | 76% | -11% | -2% | -2% | 6% | -12% | 13% | 12% | 30% | −16 | −10
6 | Fc1ccc(-c2nc3occn3c2-c2ccnc(N[C@@H]3CN4CCC3CC4)n2)cc1 [LXXI] | 5% | 6% | -20% | 3% | 4% | 10% | 2% | 6% | -5% | 80% | 16% | 11% | -5% | 9% | -42% | -5% | -17% | 4% | −10 | 6
7 | Fc1ccc(-c2nc3occn3c2-c2ccnc(N[C@H]3CN4CCC3CC4)n2)cc1 [LXXXVII] | -12% | 10% | -25% | 0% | -32% | -13% | 3% | -1% | -4% | 54% | -10% | -6% | -2% | 5% | -26% | -29% | -51% | -14% | −4 | −1

Reference: patent US20070270418A1, “Inhibitors of P38 and Methods of Using the Same” (priority 2003, published 2007)
